# Publication PMC10941186, “Real-Time Biosynthetic Reaction Monitoring Informs the Mechanism of Action of Antibiotics” (Journal of the American Chemical Society, 2024)
# Tests used:
# Format in all cases: biochemical
# UppP = target: T1, UppP (Escherichia coli, UniProt P60932); assay: native mass spectrometry, real-time reaction monitoring
# T1 construct: expressed and purified from E. coli membranes, LDAO micelles, delipidated for activity
# T1 sequence (P60932 1-273): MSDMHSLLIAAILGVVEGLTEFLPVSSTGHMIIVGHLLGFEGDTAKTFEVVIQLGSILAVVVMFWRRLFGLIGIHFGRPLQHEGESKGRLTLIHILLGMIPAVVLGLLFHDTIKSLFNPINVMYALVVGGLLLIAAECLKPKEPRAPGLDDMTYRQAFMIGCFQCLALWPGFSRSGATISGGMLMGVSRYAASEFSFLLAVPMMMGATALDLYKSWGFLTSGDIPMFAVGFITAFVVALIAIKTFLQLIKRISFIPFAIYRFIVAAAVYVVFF
# YbjG = target: T2, YbjG (Escherichia coli, UniProt P75806); assay: thin-layer chromatography phosphatase assay; settings: unaffected by EDTA or CaCl2
# T2 construct: construct details only in supplement
# T2 sequence (P75806 1-198): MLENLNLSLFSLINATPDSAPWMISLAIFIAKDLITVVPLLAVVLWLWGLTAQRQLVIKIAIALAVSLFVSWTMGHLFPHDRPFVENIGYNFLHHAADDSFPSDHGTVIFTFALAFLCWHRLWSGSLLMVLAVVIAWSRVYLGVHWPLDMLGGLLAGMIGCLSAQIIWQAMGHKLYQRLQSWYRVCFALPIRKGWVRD
# PgpB^Bs = target: T3, PgpB^Bs (Bacillus subtilis, UniProt O34349); assay: native mass spectrometry, real-time reaction monitoring
# T3 construct: expressed in E. coli, purified, LDAO micelles; monomer; tag details not given
# T3 sequence (O34349 1-203): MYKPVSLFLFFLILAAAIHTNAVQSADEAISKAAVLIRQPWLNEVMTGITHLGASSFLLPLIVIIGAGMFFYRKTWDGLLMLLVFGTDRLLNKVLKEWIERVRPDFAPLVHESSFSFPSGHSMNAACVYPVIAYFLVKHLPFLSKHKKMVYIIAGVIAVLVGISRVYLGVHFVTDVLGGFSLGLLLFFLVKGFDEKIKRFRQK
# PgpB^Ec = target: T4, PgpB^Ec (Escherichia coli, UniProt P0A924); assay: as above
# T4 construct: expressed and purified from E. coli membranes, LDAO micelles; monomer; tag details not given (PgpB-his plasmid used in cells)
# T4 sequence (P0A924 2-254): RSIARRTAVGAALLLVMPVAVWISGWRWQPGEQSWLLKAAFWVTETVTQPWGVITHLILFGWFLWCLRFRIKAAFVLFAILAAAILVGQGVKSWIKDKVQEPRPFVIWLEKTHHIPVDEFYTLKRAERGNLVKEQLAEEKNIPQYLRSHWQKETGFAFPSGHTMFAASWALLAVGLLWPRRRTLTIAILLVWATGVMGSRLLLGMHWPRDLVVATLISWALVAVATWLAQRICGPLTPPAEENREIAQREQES
# [1] = within 1 min, only enzyme-product complexes seen
smiles,measurement,setting,value
CC(C)=CCC/C(C)=C/CC/C(C)=C/COP(=O)(O)OP(=O)(O)O [C15-PP],"native mass spectrometry, real-time reaction monitoring","UppP; 3.5 uM delipidated protein, 50 uM C15-PP",peaks corresponding to ligand-free UppP and multiple enzyme–substrate complexes (UppP)(C15-PP)n
CC(C)=CCC/C(C)=C/CC/C(C)=C/CC/C(C)=C/CC/C(C)=C/CC/C(C)=C/CC/C(C)=C/CC/C(C)=C/CC/C(C)=C/CC/C(C)=C/CC/C(C)=C/COP(=O)(O)OP(=O)(O)O [C55-PP],thin-layer chromatography phosphatase assay,YbjG,the activity of YbjG against C55-PP is unaffected by EDTA or CaCl2
same,"native mass spectrometry, real-time reaction monitoring",PgpB^Bs; [1],We next examined the activity of PgpB of B. subtilis (PgpB^Bs) toward DGPP and C55-PP
same,"native mass spectrometry, real-time reaction monitoring","PgpB^Ec; 3.5 uM protein, 10 uM C55-PP, slowly processed",we observe intense binding of C55-PP molecules to the enzyme
CC(C)=CCC/C(C)=C/CC/C(C)=C/CC/C(C)=C\CC/C(C)=C\CC/C(C)=C\CC/C(C)=C\CC/C(C)=C\CC/C(C)=C\CC/C(C)=C\CC/C(C)=C\COP(=O)(O)O [C55-P],"native mass spectrometry, real-time reaction monitoring",UppP; product formed in situ from C55-PP,only the C55-P product was observed in complex with the protein
"CCCCCCCC/C=C\CCCCCCCC(=O)OC[C@H](COP(=O)(O)O)OC(=O)CCCCCCC/C=C\CCCCCCCC [DGP, 1,2-dioleoylglycerol monophosphate]","native mass spectrometry, real-time reaction monitoring","PgpB^Ec; product formed in situ from DGPP, ternary complex with DGPP",ternary complex formed by PgpB^Ec with the substrate DGPP and the monophosphorylated product DGP
"CCCCCCCC/C=C\CCCCCCCC(=O)OC[C@H](COP(=O)(O)OP(=O)(O)O)OC(=O)CCCCCCC/C=C\CCCCCCCC [DGPP, 1,2-dioleoylglycerol diphosphate]","native mass spectrometry, real-time reaction monitoring",UppP; poorly processed substrate,The resultant spectra are dominated by peaks assigned to the bound substrate.
same,"native mass spectrometry, real-time reaction monitoring",PgpB^Bs; [1],peaks assigned to enzyme–product complexes with no residual substrate
same,"native mass spectrometry, real-time reaction monitoring","PgpB^Ec; 3.5 uM protein, 10 uM DGPP, stoichiometries 1:1 to 1:4, activity independent of divalent cations",DGPP incubated with PgpB^Ec exhibited intense peaks corresponding to the enzyme–substrate and enzyme–product complexes
CCCCCCCC/C=C\CCCCCCCC(=O)OC[C@@H](O)COP(=O)(O)O [LPA],"native mass spectrometry, real-time reaction monitoring","PgpB^Bs; 3.5 uM protein with 50 uM LPA, 5 uM with 20 uM (Figure 2C)",The resulting spectra exhibited a progressive loss of protein-bound LPA as a function of time
